Row | Compound | melting point [°C]
1 | Cc1cc(Br)c(Br)cc1C | 86
2 | OCC(F)(F)C(F)(F)C(F)(F)C(F)(F)C(F)(F)C(F)(F)C(F)(F)C(F)(F)CO | 132 to 137
3 | OCC1OC(O)C(F)C(O)C1O (configuration not stated) | 170 to 176
4 | N#Cc1sc(Br)c2c1OCCO2 | 149 to 150
5 | COc1ccc(-c2ccccc2)cc1NC(=O)C(C(F)(F)F)C(F)(F)F | 211
6 | O=C1OC(c2ccccc2)=N/C1=C\c1ccc(/C=C2/N=C(c3ccccc3)OC2=O)cc1 | 271
7 | CCOC(=O)C1=C(C)NC(C)=C(C(=O)OC)C1c1cccc([N+](=O)[O-])c1 (configuration not stated) | 158
8 | NCCCS(=O)(=O)O | 270
9 | Cc1ccc(C(=O)CCC(=O)O)cc1 | 129
10 | COc1cc(CNC(=O)c2[nH]c3ccccc3c2CCO)cc(OC)c1 | 185 to 187
11 | CC(=O)CC(=O)OCc1ccc([N+](=O)[O-])cc1 | 45 to 46.5
12 | COc1ccc2c(c1)C(=O)N(CCc1ccc(S(=O)(=O)NC(=O)NC3CCCCC3)cc1)C(=O)C2(C)C | 181
13 | O=Cc1ccc(C=O)c([N+](=O)[O-])c1 | 97
14 | O=C(O)c1ccccc1C1c2ccc(O)cc2Oc2cc(O)ccc21 | 126
15 | BrCc1ccc(-c2ccccc2)cc1 | 86 to 87
16 | Cn1c(=O)c(C2=NNC(=O)C2=NNc2ccc(Cl)cc2)c(O)c2ccccc21 | 240
17 | Cc1cc(C)c2c(c1)CC1CCCCN1C2=O (configuration not stated) | 102
18 | O=C(N[N+](=O)[O-])c1ccccc1 | 143
19 | CC(=O)C(CC(=O)c1ccccc1)C(=O)c1ccccc1 (configuration not stated) | 90
20 | Cc1ccc(C#N)cc1F | 47
21 | CCOCn1c(-c2ccc(Cl)cc2)c(C#N)c(Br)c1C(F)(F)F | 101
22 | BrCc1cccc(N2CCCC2)n1 | 69 to 72.5

Row | Compound | melting point [°C]
23 | CON=C(C)c1cccc(Oc2nc(OC)cc(OC)n2)c1C(=O)OC | 107
24 | COc1ccc(C=O)cc1O | 114
25 | NC(CCP(=O)(O)O)C(=O)O (racemic) | 225 to 228
26 | Nc1ccc(Cl)cc1C(F)(F)F | 9
27 | NC(=O)c1cccc(Cl)c1Cl | 170 to 172
28 | O=C(O)c1cc(Cl)c(C(=O)O)cc1Cl | 306
29 | O=[N+]([O-])c1ccc(CS(=O)(=O)Cl)cc1 | 91 to 92
30 | Cn1ccc2cc(N)ccc21 | 102 to 103
31 | CC(=O)OC1CCC2(C)C(=CCC3C4CCC(=O)C4(C)CCC32)C1 (configuration not stated) | 147
32 | O=S(=O)(Cl)c1ccc2nsnc2c1 | 69 to 74
33 | O=C(O)c1cc(F)c(Cl)c([N+](=O)[O-])c1Cl | 193 to 197
34 | COc1ccc(/C=N/c2ccc(-c3ccc(/N=N/c4ccccc4)cc3)cc2)cc1 | 214 to 215
35 | O=C(c1ccccc1)c1ccc(O)c(O)c1 | 144 to 148
36 | NNC(=O)c1cccnc1 | 162
37 | CCOC(=O)c1[nH]c2cc3[nH]c(C(=O)OCC)c(OC(C)=O)c3cc2c1OC(C)=O | 178
38 | OCc1cccc(CN2CCCCC2)c1 | 67 to 69
39 | Cc1nccn1-c1ccc(CN)cc1 | 90.5 to 91.5
40 | Cc1c(C(=O)O)cccc1[N+](=O)[O-] | 184
41 | BrCOCBr | -34
42 | COc1ccc(C=Cc2cc(OC)cc(=O)o2)cc1 | 156
43 | CCC(O)(CC)C1(C)CCC(C(=O)O)C(C)(C)O1 (configuration not stated) | 138
44 | CN(c1ccccc1)c1ccccc1 | -7.6

Row | Compound | melting point [°C]
45 | CCCCCCCCCCCCCCCCC(C)C | 15
46 | CSCCC(NC(C)=O)C(=O)O (racemic) | 115
47 | O=C(Nc1cc2c(cc1/C=C/c1ccccc1)CC(c1ccccc1)N2C(=O)c1ccccc1)c1ccccc1 (configuration not stated) | 250
48 | CCOC(=O)c1cc(C)nc(Cl)c1C#N | 58 to 60
49 | Nc1ccc(C#Cc2ccc(N)cc2)cc1 | 235 to 236
50 | O=C(c1ccc(O)cc1)c1ccc(Cl)cc1 | 180
51 | Cc1cccc(C(=O)C(=O)c2ccccc2)n1 | 76.8
52 | COc1cccc(N2C(=O)C=CC2=O)c1 | 62 to 66
53 | CC(=O)c1cc2cc(Cl)ccc2o1 | 97 to 98
54 | Brc1cc(Br)c(Oc2ccc(Br)c(Br)c2)c(Br)c1 | 86 to 87
55 | N#Cc1nc[nH]c1C#N | 175
56 | Nc1c(C=O)c(=O)oc2ccccc12 | 267 to 268
57 | Clc1cc(Cl)c(Cl)c(I)c1 | 52
58 | Cc1cc(N=C2c3ccccc3CN2c2cc(C)on2)no1 | 191
59 | COc1cc2c(cc1O)C(C)=NCC2 | 182 to 185
60 | C#CC1(O)CCC2C3CC=C4CC(O)CCC4(C)C3CCC21C (configuration not stated) | 248
61 | COc1cscc1C(N)=O | 120 to 121
62 | N=C1NCCS1 | 85.3
63 | CC1=Nc2c(ccc3ccccc23)C1(C)C | 71
64 | COc1cc(CCl)ccc1OCc1ccccc1 | 73
65 | Oc1ccc(S)cc1 | 34
66 | CC(=O)N[C@@H](Cc1ccccc1)C(=O)O | 172

Row | Compound | melting point [°C]
67 | COc1ccc2ncccc2c1 | 26.5
68 | Cc1cccc(C(C)(C)C)c1O | 31
69 | N#CCCn1ccnc1-c1ccccc1 | 99.5 to 102
70 | O=S1(=O)CC(O)C(Br)C1 (configuration not stated) | 190 to 192
71 | Cc1ccncc1CNC(=O)c1ccccc1 | 112
72 | C#CCC | -126
73 | CC(=O)C=Cc1ccco1 | 39.5
74 | Nc1cc(Cl)c2nonc2c1[N+](=O)[O-] | 276 to 277
75 | NP(=O)(Oc1ccccc1)Oc1ccccc1 | 149
76 | O=C(c1ccccc1O)c1ccccc1O | 59.5
77 | O=C1NC2=Cc3ccccc3C2(O)Cc2ccccc21 (configuration not stated) | 209
78 | ClCc1cc2c(cc1Cl)OCO2 | 64
79 | COc1cc(OCc2ccccc2)ccc1C=O | 96
80 | C=COC(=O)CC | -80
81 | CCCCCCCS | -43
82 | O=S1CCC1 | 31.5
83 | Nc1cccc(CN2CCOCC2)c1 | 73 to 75
84 | Cc1ccccc1/C=C(\C#N)c1nc2ccccc2n1C | 269
85 | OC1CCCCCCCCCCCCCC1 | 80.5
86 | Cc1cccc(C)c1NC(=O)c1ccc[nH]c1=O | 266
87 | O=C1OC(=O)C2CCC12 (configuration not stated) | 73 to 76
88 | Cn1c(SCC(=O)O)nnc1-c1ccc2ncccc2c1 | 238 to 239

Row | Compound | melting point [°C]
89 | O=S(=O)(Cl)c1cc2ccccc2o1 | 79 to 81
90 | CC(C)N1CSc2nnc(-c3cccnc3)n2C1 | 289
91 | Cc1cc(C(C#N)c2ccc(Cl)cc2)c(Cl)cc1NC(=O)c1cc(I)cc(I)c1O (configuration not stated) | 218
92 | Brc1cc(Br)c(Br)c(Br)c1 | 99.5
93 | COc1ccc(S(=O)(=O)Cl)c(OC)c1 | 72
94 | CC(C)c1ccccc1 | -96
95 | Cn1nnc2cc(CBr)ccc21 | 120
96 | Cn1cnc(C#N)c1C#N | 85
97 | NS(=O)(=O)c1ccc(N=C=S)cc1 | 210 to 212
98 | Cc1ccc(NC=CC(=O)c2ccc3c(c2)CCCC3)cc1 | 139
99 | FC1(F)C(Cl)=C(Cl)C(F)(F)C(F)(F)C1(F)F | -70
100 | Nc1ccc(CN2CCCCC2)cc1 | 87 to 88
101 | CC12CCC(O)CC1CCC1C2C(O)CC2(C)C(c3ccc(=O)oc3)CCC12O (configuration not stated) | 254
102 | Cc1nc2sccn2c1C(=O)O | 164 to 165
103 | O=C(O)c1ccc(Cc2ccc(C(=O)O)cc2)cc1 | 346 to 350
104 | N#Cc1ccc(C(Cl)=Cc2cccc(C=C(Cl)c3ccc(C#N)cc3[N+](=O)[O-])c2)c([N+](=O)[O-])c1 | 268
105 | CC(=O)c1cc(Br)c(O)c(Br)c1 | 174 to 183
106 | Fc1ccc(-c2ccc(F)cc2)cc1 | 94.5
107 | O=S(=O)(Cl)c1occc1C1OCCO1 | 34 to 39
108 | N#CC(C#N)=Cc1ccc(Cl)cc1 | 91
109 | O=C(CCCC(=O)c1ccccc1)c1ccccc1 | 64 to 67
110 | CC(=O)C(C=N)c1ccccc1 (configuration not stated) | 96

Row | Compound | melting point [°C]
111 | Cc1ccc2c3c(c4c(c2c1)CCCC4)CCCC3 | 93
112 | C/C=C/C(=O)O | 72
113 | O=C(O)c1cccc(N=C=S)c1 | 165
114 | COC(=O)/C(=C/c1ccccc1)Cc1ccccc1 | 27 to 28
115 | O=[N+]([O-])c1cccc(CS(=O)(=O)Cl)c1 | 99
116 | CSc1ccc(Oc2ccc(C(F)(F)F)cc2[N+](=O)[O-])cc1 | 41 to 43
117 | CC(=O)C1(O)CCC2(C)C(CC(=O)C3C4CCC(=O)C4(C)CCC32)C1 (configuration not stated) | 185 to 191
118 | CSC(=O)c1c(C(F)F)nc(C(F)(F)F)c(C(=O)SC)c1CC(C)C | 65
119 | CC1CCCC(C)N1C(=O)COC(=O)c1ccccc1 (configuration not stated) | 118
120 | FC(F)(F)c1cc(Cl)c2cc(Cl)ccc2n1 | 104 to 107
121 | Nc1ccc(Br)cc1C(=O)O | 220
122 | CCCCCCCc1ccccc1 | -48
123 | O=C(CCl)NNC(=O)c1ccccc1 | 163 to 166
124 | O=C(NC1CCN(Cc2ccccc2)C1)C(F)(F)F (configuration not stated) | 71
125 | O=[N+]([O-])c1ccc(N=Nc2ccc([N+](=O)[O-])cc2)cc1 | 212
126 | CC(C)CC1CCCCC1 | -95
127 | Cc1nnsc1-c1nnc(S)n1C1CC1 | 212 to 213
128 | CCOC(=O)C(F)(F)C(F)(F)F | 75.5
129 | NN=C(c1ccccc1)c1ccccc1 | 96.5
130 | O=[N+]([O-])c1ccc(S(F)(F)(F)(F)F)cc1 | 38
131 | CCCCCCCc1ccc(-c2ccccc2)cc1 | 27
132 | ClCc1noc(-c2ccsc2)n1 | 69 to 70
